Data published in patent US20240165164A1, “STEM CELLS FOR USE IN REDUCING THE IMMUNE RESPONSE FOLLOWING ORGAN TRANSPLANTATION” (Amniotics AB, priority 2021, published 2024).

Legend:
[1] = system: human Peripheral Blood Mononuclear Cells (PBMCs); test: PBMC co-culture: cytokine analysis after 24 hours of activation (Luminex); assay type: cell-based
Method: 100 μl PBMCs were added per well. […] See also FIG. 28.
Supernatant (24 hours incubation) was analysed for cytokines using the 12-plex LXSAHM-12 Luminex kit. All reagents, standard and samples were prepared at room temperature and according to manufacturer's instruction. Briefly, 50 μl of standard or sample was added to wells. Microparticles were added to samples and standard and samples were incubated for 2 hours at room temperature on a horizontal orbital shaker (800 rpm). Plate was washed 3× in washing buffer using a magnetic plate. Biotin-antibody was added and incubated dark for 1 hour at room temperature on a horizontal orbital shaker (800 rpm). Plate was washed 3× in washing buffer using a magnetic plate. Streptavidin-PE was added to each well and incubated dark at room temperature on a horizontal orbital shaker (800 rpm) for 30 minutes. Plate was washed 3× in washing buffer using a magnetic plate. Microparticles were resuspended in 100 μl washing buffer, incubated for 2 minutes on a horizontal orbital shaker (800 rpm). Samples were analysed on a Bio-Rad Luminex analyzer.

[2] = system: human Peripheral Blood Mononuclear Cells (PBMCs); test: PBMC co-culture: cell composition after 24 hours of activation (FACS analysis)
Method: (§1) Freshly isolated human PBMCs, pooled from three donors, were activated with anti-CD3/anti-CD28 at 10 μg/ml and 5 μg/ml respectively in presence of MSCs ex vivo for 24 or 72 hours. Following activation, cells were analysed for effects on cellular composition after 24 hours and for effects on cellular composition and cell proliferation using CFSE after 72 hours. In addition, supernatants collected after 24 hours of activation were analysed for cytokine levels using Luminex.
(§2) Peripheral Blood Mononuclear Cells (PBMCs) were isolated from leucocyte concentrate from three different donors (acquired from Blodcentralen, Lunds Universitetssjukhus, Lund, Sweden) through gradient centrifugation at 400×g for 40 minutes using Ficoll. Red blood cells (RBCs) were lysed using BD Pharmlyse buffer 10× diluted in milliQ water for 3 minutes at room temperature (RT). Cells were washed and the isolated PBMCs were pooled. Cell concentration was determined using a Scepter cell counter (Millipore Merck, MA. USA). Cells were diluted to 1×10^7 cells/ml in PBS. Pooled PBMCs were split into 2 different tubes. Cells in tube 1 was stained with CFSE at 5 µM for 5 minutes (dark, RT). CFSE stained cells were washed with an equal volume of FBS to stop the reaction and washed again with PBS. Cells in tube two was left in PBS.
(§3) MSCs (donor 1, donor 2, donor 3, and AD-MSC control cells) were provided in 8 different tubes, two for each cell type (in different medias (M3 and M4). All cells (PBMCs and MSCs) were diluted in the two different cell culture media (M3 and M4) to a final concentration of 2*10^6 cells/ml. Media was supplemented with anti-CD28 at 5 μg/ml. Cells were added to anti-CD3 (1 μg/well, 100 μl/well) coated U bottom cell culture plates according to the layout below, 200 μl/well in different PBMC:MSC ratios (1:10, 1:5, 1:2.5, 1:0 and 0:1) with a total amount of cells at 4*10^5 cells/well.
(§4) When plating controls, cells were spun down and diluted in M3 or M4 at 4*10^6 cells/ml, with a total amount of cells at 4*10^5 cells/well. 100 μl PBMCs were added per well. […] Medium was added to unstimulated control wells (700 μl/well). Cells were incubated for 24 or 72 hours at 37° C., 5% CO2. See also FIG. 28.
Following 24 hours of incubation, cells in FACS/Luminex plates were stained with antibodies detecting CD73, CD4, CD8, CD80, CD206, CD163 and PD-1 in staining buffer (PBS supplemented with 1% BSA). Briefly, cells were transferred to V bottom plates and centrifuged at 360×g for 2 min. Supernatant was transferred to a storage plate and put in −20° C. until analysis using Luminex. Cells were washed in PBS, centrifuged at 360×g for 2 min at 4° C. Supernatant was flicked off and antibodies against surface markers were added. Cells were incubated at +4° C. for 20 minutes (dark). After incubation, cells were washed 1× in PBS, centrifuged at 360×g for 2 min at 4° C. Cells were resuspended in PBS and acquired using the Attune Nxt flow cytometer. Compensation was performed using beads—AbC Total Compensation capture beads and negative beads. Since compensation was done using beads, FSC and SSC were changed before analysing samples and adjusted to cells. Lasers were not changed after compensation. 150 μl was analysed from each sample.

[3] = system: human Peripheral Blood Mononuclear Cells (PBMCs); test: PBMC co-culture: proliferation and cell composition after 72 hours of activation (FACS analysis after CFSE labeling)
Method: as §1, §2, §3, §4
After 72 hours of incubation, CFSE stained cells were stained with CD4, CD8, CD80, CD206 and CD163 in staining buffer. Briefly, cells were transferred to V bottom plates, centrifuged at 360×g for 2 min. Cells were washed in PBS, centrifuged at 360×g for 2 min at 4° C. Supernatant was flicked off and surface markers were added. Cells were incubated at +4° C. for 20 minutes. After incubation, cells were washed 1× in PBS, centrifuged at 360×g for 2 min at 4° C. Cells were resuspended in PBS and acquired using the Attune Nxt flow cytometer. Compensation was performed using beads—AbC Total Compensation capture beads and negative beads for surface markers. For CFSE compensation, newly CFSE stained cells were used. Since compensation was done using both beads and cells, FSC and SSC were changed and adjusted to beads or cells. Lasers were not changed after compensation.
Graphs were performed using Prism 8 for Mac OS X (GraphPad Software, San Diego, CA, USA). Results are presented as mean values±SEM, if not otherwise stated. Dot plots were acquired from analysis using FlowJo v10.6.1 for Mac (BD, New Jersey, USA). The inhibitory effect of MSCs on PBMC proliferation was calculated according to the two formulas below: […]

[4] = CsA 10 μg/ml, Prednisolone 125 nM
[5] = stimulated PBMCs, media 3, MSCs at all ratios, CsA 10 μg/ml, Prednisolone 125 nM

With `C[C@]12C=CC(=O)C=C1CC[C@@H]1[C@@H]2[C@@H](O)C[C@@]2(C)[C@H]1CC[C@]2(O)C(=O)CO` [Prednisolone] the “the other analysed cytokines, levels in supernatant” value ([1]; 12-plex cytokines not listed as inhibited) was “No inhibitory effect”, the “IL-6 levels in supernatant” value [1, 4] was “inhibits” and the “IL12/IL23p40 levels in supernatant” value [1, 5] was “inhibits”. For the same compound, the “TNF-α levels in supernatant” value [1, 5] was “inhibits”, the “HGF levels in supernatant” value ([1]; stimulated PBMCs, media 3, PBMC:MSC 1:2.5, 1:5, 1:10, CsA 10 μg/ml, Prednisolone 125 nM) was “inhibits” and the M2 macrophage expression [2, 4] was “no effect”. For the same compound, the T cell activation [2, 4] was “only slightly inhibits”, the “expression level of M1 macrophages” value [2, 4] was “no effect” and the macrophage cell composition ([2]; Prednisolone 125 nM) was “did not have an effect”. The “T helper cells (% CD4+ lymphocytes or MFI of CD4+ lymphocytes)” value ([2]; aCD3/aCD28 activated PBMCs, media 3, unsorted MSCs at PBMC:MSC 1:2.5, 1:5, 1:10, Prednisolone 125 nM, vs control) was “higher levels”, the M1 expression levels ([3]; 72 hours) was “no effect” and the “M1 proliferation (CFSE)” value ([3]; 72 hours) was “No effect”. The M2 expression levels ([3]; 72 hours) was “no effect”, the “M2 proliferation (CFSE)” value ([3]; 72 hours) was “No effect” and the “T helper cells (% CD4+ among T cells)” value ([3]; 72 hours of incubation, unsorted MSCs co-culture, CsA 10 μg/ml, Prednisolone 125 nM) was “no effect”.
